Test results from patent publication US20230117034A1, “PYRAZOLOTRIAZINES” (Bayer Aktiengesellschaft, priority 2019, published 2023).
Like-named read-outs stand apart in the source and are kept apart here.

Assays:
[1] = molecular target: T1, CDK12 (nuclear staining in CAL-120 cells) (Homo sapiens, UniProt Q9NYV4); assay: CDK12 nuclear protein level: immunofluorescence/high content analysis (CAL-120); type: cell-based; conditions: for DC50: CAL-120 cells, 24 h, immunofluorescence, 50% reduction of nuclear CDK12 staining intensity, median, read-out: CDK12 degradation IF, DC50- [mol/l] (median); for (IC50 CDK12 high ATP) to (Degradation DC50 CDK12) ratio: ratio of IC50 CDK12 high ATP kinase assay to DC50 CDK12 degradation (IF, CAL-120)
T1 construct: endogenous in cells; host or cells: CAL-120 human breast cancer cells (DSMZ ACC 459)
T1 sequence (Q9NYV4 whole entry): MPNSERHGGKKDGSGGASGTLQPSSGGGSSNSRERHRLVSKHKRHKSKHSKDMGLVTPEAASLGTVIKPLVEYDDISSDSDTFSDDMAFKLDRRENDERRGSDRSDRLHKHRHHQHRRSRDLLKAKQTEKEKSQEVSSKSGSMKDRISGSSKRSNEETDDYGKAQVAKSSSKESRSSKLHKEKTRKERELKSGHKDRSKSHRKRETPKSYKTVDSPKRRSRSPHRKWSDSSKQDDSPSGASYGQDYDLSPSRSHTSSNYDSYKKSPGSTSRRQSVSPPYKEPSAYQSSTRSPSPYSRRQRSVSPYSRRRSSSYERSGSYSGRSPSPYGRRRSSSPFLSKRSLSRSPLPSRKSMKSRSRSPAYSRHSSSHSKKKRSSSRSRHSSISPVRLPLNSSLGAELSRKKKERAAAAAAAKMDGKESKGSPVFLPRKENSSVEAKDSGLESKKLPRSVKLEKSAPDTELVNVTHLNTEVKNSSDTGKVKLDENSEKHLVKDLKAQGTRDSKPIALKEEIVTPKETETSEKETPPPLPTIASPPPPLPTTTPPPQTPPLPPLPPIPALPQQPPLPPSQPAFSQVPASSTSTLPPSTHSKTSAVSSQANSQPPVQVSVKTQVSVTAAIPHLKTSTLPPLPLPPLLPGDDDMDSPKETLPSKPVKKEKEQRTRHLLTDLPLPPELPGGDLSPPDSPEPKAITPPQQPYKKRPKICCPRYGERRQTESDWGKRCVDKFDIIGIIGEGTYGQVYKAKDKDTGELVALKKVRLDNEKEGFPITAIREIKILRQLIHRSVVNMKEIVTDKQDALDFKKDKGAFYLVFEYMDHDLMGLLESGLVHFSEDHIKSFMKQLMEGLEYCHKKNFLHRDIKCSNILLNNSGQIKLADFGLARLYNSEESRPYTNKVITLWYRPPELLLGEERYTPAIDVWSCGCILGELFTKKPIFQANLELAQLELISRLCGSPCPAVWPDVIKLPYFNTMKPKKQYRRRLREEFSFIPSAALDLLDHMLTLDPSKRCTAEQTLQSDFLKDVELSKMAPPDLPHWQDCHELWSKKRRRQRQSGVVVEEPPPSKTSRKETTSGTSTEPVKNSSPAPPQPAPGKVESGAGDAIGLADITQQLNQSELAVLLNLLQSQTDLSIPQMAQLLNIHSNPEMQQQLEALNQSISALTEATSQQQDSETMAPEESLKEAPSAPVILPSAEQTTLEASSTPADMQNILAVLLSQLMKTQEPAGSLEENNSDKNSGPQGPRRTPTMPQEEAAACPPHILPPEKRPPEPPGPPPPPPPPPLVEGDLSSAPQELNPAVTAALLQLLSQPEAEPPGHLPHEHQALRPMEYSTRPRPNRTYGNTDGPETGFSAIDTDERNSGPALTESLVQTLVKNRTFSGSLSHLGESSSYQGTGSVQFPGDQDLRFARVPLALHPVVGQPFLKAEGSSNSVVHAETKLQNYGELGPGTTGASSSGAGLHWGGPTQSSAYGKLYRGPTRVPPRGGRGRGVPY
T1 sequence (O75909 whole entry partner): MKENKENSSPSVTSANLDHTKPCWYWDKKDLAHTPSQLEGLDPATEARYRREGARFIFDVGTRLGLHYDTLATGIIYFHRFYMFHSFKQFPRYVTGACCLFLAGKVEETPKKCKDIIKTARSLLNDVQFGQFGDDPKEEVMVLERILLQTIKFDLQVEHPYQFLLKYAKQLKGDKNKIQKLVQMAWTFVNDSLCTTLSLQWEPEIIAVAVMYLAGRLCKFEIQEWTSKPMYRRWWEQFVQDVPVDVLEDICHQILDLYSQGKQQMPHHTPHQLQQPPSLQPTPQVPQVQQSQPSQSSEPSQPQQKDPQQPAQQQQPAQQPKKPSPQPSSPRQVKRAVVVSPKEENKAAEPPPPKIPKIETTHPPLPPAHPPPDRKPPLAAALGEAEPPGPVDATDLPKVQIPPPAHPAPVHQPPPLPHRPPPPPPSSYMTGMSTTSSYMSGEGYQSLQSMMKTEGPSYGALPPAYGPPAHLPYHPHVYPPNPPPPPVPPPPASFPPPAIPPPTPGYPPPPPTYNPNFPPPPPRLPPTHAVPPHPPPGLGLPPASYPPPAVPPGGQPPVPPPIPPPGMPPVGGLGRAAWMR
Procedure, shortened: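 DC50 is the degrader concentration that halves nuclear CDK12 immunofluorescence relative to controls, measured by high-content imaging. CAL-120 cells were exposed to compound for 24 h at 37 °C before PFA fixation, and signal was normalized to DMSO and control wells.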

[2] = system: BRCA1 mRNA expression in MDA-MB-231 cells; assay: qRT-PCR assay: BRCA1 mRNA expression in MDA-MB-231; type: cell-based, human; conditions: Homo sapiens, median, read-out: RTqPCR-MDA-MB-231, IC50, BRCA1 (median)
Procedure, shortened: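 First, cells are plated at 200,000 per well and allowed 24 h. Second, test substances are applied continuously for a further 24 h. Finally, RNA is isolated, 600 ng is converted to cDNA, and qPCR quantifies the transcript relative to GAPDH.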

[3] = system: CAL-120, human breast adenocarcinoma cells; assay: Proliferation assay CAL-120 (crystal violet, 4 days); type: cell-based; conditions: Homo sapiens, CAL-120 cells, median, read-out: Prolif-CAL-120, IC50-[mol/l] (median)
Procedure, shortened: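 Growth was measured by crystal violet staining after cells had been treated with compounds (0.01-10 µmol/L, 0.1% DMSO) for 4 days, beginning 24 h after seeding. Values were normalized to a zero-point plate and to untreated controls, and IC50 values were derived by a four-parameter fit.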

[4] = molecular target: T2, CYCLIN K (nuclear staining in CAL-120 cells) (Homo sapiens, UniProt O75909); assay: CYCLIN K nuclear protein level: immunofluorescence high content analysis (CAL-120); type: cell-based; conditions: 24 h, 50% reduction of nuclear CCNK staining intensity, median, read-out: CYCLIN K degradation IF, DC50-[mol/l] (median)
T2 construct: endogenous in cells; host or cells: CAL-120 human breast cancer cells (DSMZ ACC 459)
T2 sequence (O75909 whole entry): as the sequence (O75909 whole entry partner) above
T2 sequence (Q9NYV4 whole entry partner): as the sequence (Q9NYV4 whole entry) above
Procedure, shortened: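 Readout is automated confocal image analysis of nuclear cyclin K immunofluorescence (Hoechst nuclei) after PFA fixation. Cells were CAL-120, exposed to compound dose-response 24 h at 37 °C; values are DC50 for halving nuclear CCNK signal relative to DMSO and control wells.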

[5] = MDA-MB-231, Inhibition of BRCA1 mRNA expression in MDA-MB-231 cells

Compound	DC50 [1] [nM]	(IC50 CDK12 high ATP) to (Degradation DC50 CDK12) ratio [1]	IC50 [2, 5] [nM]	IC50 ([3]; CAL-120, 96 h) [nM]	DC50 [4] [nM]	IC50 ([2]; Inhibition of BRCA1 mRNA expression in MDA-MB-231 cells) [nM]	IC50 ([3]; 96 h) [nM]
CN1CCN(c2nc(NCc3nc4c(F)c(Cl)ccc4[nH]3)n3ncc(C4CC4)c3n2)CC1 [Example 371, N-[(5-chloro-4-fluoro-1H-benzimidazol-2-yl)methyl]-8-cyclopropyl-2-(4-methylpiperazin-1-yl)pyrazolo[1,5-a][1,3,5]triazin-4-amine]	4.16	1263	7.36	3.9	0.652	–	–
Fc1cc2nc(CNc3nc(N4CC5CCC(C4)N5)nc4c(Br)cnn34)[nH]c2cc1F [Example 355, 8-bromo-2-(3,8-diazabicyclo[3.2.1]octan-3-yl)-N-[(5,6-difluoro-1H-benzimidazol-2-yl)methyl]pyrazolo[1,5-a][1,3,5]triazin-4-amine]	23.5	178	1.41	2.2	0.481	–	–
Cc1cc2nc(CNc3nc(N4CCN(C)CC4)nc4c(Br)cnn34)[nH]c2cc1C [Example 342, 8-bromo-N-[(5,6-dimethyl-1H-benzimidazol-2-yl)methyl]-2-(4-methylpiperazin-1-yl)pyrazolo[1,5-a][1,3,5]triazin-4-amine]	2.12	3129	1.27	1.52	0.053	–	–
Fc1c(Cl)ccc2[nH]c(CNc3nc(N4CCOCC4)nc4c(C5CC5)cnn34)nc12 [Example 370, N-[(5-chloro-4-fluoro-1H-benzimidazol-2-yl)methyl]-8-cyclopropyl-2-(morpholin-4-yl)pyrazolo[1,5-a][1,3,5]triazin-4-amine]	2.19	77	5.63	3.59	0.258	–	–
Cc1cc2nc(CNc3nc(N4CC5CCC(C4)N5)nc4c(C5CC5)cnn34)[nH]c2cc1C [Example 326, 8-cyclopropyl-2-(3,8-diazabicyclo[3.2.1]octan-3-yl)-N-[(5,6-dimethyl-1H-benzimidazol-2-yl)methyl]pyrazolo[1,5-a][1,5]triazin-4-amine]	4.77	198	1.63	1.25	0.654	–	–
CN(CC(C)(C)O)c1nc(NCc2nc3c(F)c(Cl)ccc3[nH]2)n2ncc(Br)c2n1 [Example 374, 1-[(8-bromo-4-{[(5-chloro-4-fluoro-1H-benzimidazol-2-yl)methyl]amino}pyrazolo[1,5-a][1,3,5]triazin-2-yl)(methyl)amino]-2-methylpropan-2-ol]	1.81	85	2.6	2.8	0.345	–	–
FC(F)(F)c1ccc2[nH]c(CNc3nc(N4CC5CCC(C4)N5)nc4c(Br)cnn34)nc2c1 [Example 354, 8-bromo-2-(3,8-diazabicyclo[3.2.1]octan-3-yl)-N-{[5-(trifluoromethyl)-1H-benzimidazol-2-yl]methyl}pyrazolo[1,5-a][1,3,5]triazin-4-amine]	71.3	52	< 100	2.8	1.65	–	–
CN(CC(C)(C)O)c1nc(NCc2nc3cc(F)c(Cl)cc3[nH]2)n2ncc(Br)c2n1 [Example 338, 1-[(8-bromo-4-{[(6-chloro-5-fluoro-1H-benzimidazol-2-yl)methyl]amino}pyrazolo[1,5-a][1,3,5]triazin-2-yl)(methyl)amino]-2-methylpropan-2-ol]	0.894	1320	1.3	1.93	0.17	–	–
CN1CCN(c2nc(NCc3nc4cc(F)c(Cl)cc4[nH]3)n3ncc(Br)c3n2)CC1 [Example 337, 8-bromo-N-[(6-chloro-5-fluoro-1H-benzimidazol-2-yl)methyl]-2-(4-methylpiperazin-1-yl)pyrazolo[1,5-a][1,3,5]triazin-4-amine]	1.85	4722	< 10	2.04	0.369	–	–
FC(F)(F)c1ccc2[nH]c(CNc3nc(N4CC5CCC(C4)N5)nc4c(C5CC5)cnn34)nc2c1 [Example 327, 8-cyclopropyl-2-(3,8-diazabicyclo[3.2.1]octan-3-yl)-N-{[5-(trifluoromethyl)-1H-benzimidazol-2-yl]methyl}pyrazolo[1,5-a][1,3,5]triazin-4-amine]	10	235	8.3	2.28	0.493	–	–
Fc1cc2nc(CNc3nc(N4CC5CCC(C4)N5)nc4c(C5CC5)cnn34)[nH]c2cc1F [Example 325, 8-cyclopropyl-2-(3,8-diazabicyclo[3.2.1]octan-3-yl)-N-[(5,6-difluoro-1H-benzimidazol-2-yl)methyl]pyrazolo[1,5-a][1,5]triazin-4-amine]	1.88	1890	3.91	1.48	0.53	–	–
CN1C2CCC1CN(c1nc(NCc3nc4c(F)cccc4[nH]3)n3ncc(C(F)(F)F)c3n1)C2 [Example 384, N-[(4-fluoro-1H-benzimidazol-2-yl)methyl]-2-(8-methyl-3,8-diazabicyclo[3.2.1]octan-3-yl)-8-(trifluoromethyl)pyrazolo[1,5-a][1,3,5]triazin-4-amine]	11	735	13.6	3.48	0.662	–	–
Fc1cc2nc(CNc3nc(N4CC5CCC(C4)N5)nc4c(Br)cnn34)[nH]c2cc1Cl [Example 348, 8-bromo-N-[(6-chloro-5-fluoro-1H-benzimidazol-2-yl)methyl]-2-(3,8-diazabicyclo[3.2.1]octan-3-yl)pyrazolo[1,5-a][1,3,5]triazin-4-amine]	5.3	546	–	–	1.17	1.97	1.14
Fc1c(Cl)ccc2[nH]c(CNc3nc(N4CC5CCC(C4)N5)nc4c(C5CC5)cnn34)nc12 [Example 379, N-[(5-chloro-4-fluoro-1H-benzimidazol-2-yl)methyl]-8-cyclopropyl-2-(3,8-diazabicyclo[3.2.1]octan-3-yl)pyrazolo[1,5-a][1,3,5]triazin-4-amine]	4.35	121	2.36	1.71	0.404	–	–
CN(CC(C)(C)O)c1nc(NCc2nc3cc(C(F)(F)F)ccc3[nH]2)n2ncc(Br)c2n1 [Example 345, 1-{[8-bromo-4-({[5-(trifluoromethyl)-1H-benzimidazol-2-yl]methyl}amino)pyrazolo[1,5-a][1,3,5]triazin-2-yl](methyl)amino}-2-methylpropan-2-ol]	3.98	166	2.83	3.05	0.698	–	–
Fc1c(Cl)ccc2[nH]c(CNc3nc(N4CC5CCC(C4)N5)nc4c(Br)cnn34)nc12 [Example 380, 8-bromo-N-[(5-chloro-4-fluoro-1H-benzimidazol-2-yl)methyl]-2-(3,8-diazabicyclo[3.2.1]octan-3-yl)pyrazolo[1,5-a][1,3,5]triazin-4-amine]	2.32	438	1	1.72	0.22	–	–
CN(CC(C)(C)O)c1nc(NCc2nc3cc(F)c(F)cc3[nH]2)n2ncc(Br)c2n1 [Example 347]	2.01	1086	2.04	2.47	0.101	–	–
Clc1cc2nc(CNc3nc(N4CC5CCC(C4)N5)nc4c(Br)cnn34)[nH]c2cc1Cl [Example 334, 8-bromo-2-(3,8-diazabicyclo[3.2.1]octan-3-yl)-N-[(5,6-dichloro-1H-benzimidazol-2-yl)methyl]pyrazolo[1,5-a][1,3,5]triazin-4-amine]	33.5	60	4.02	1.72	2.06	–	–
